Data from patent US9480755B2, “Pharmaceutical composition comprising dapagliflozin and cyclodextrin” (ratiopharm GmbH, priority 2011, dated 2016).
Like-named read-outs stand apart in the source and are kept apart here.

Key:
[1] = deionised water; for Dissolved Dapagliflozin: 25 ± 2° C.
Description: The effect of cyclodextrins on the aqueous solubility of dapagliflozin was studied in deionised water at 25±2° C. The solubilizing effect was studied by preparing samples having a cyclodextrin concentration in the range of 1 to 15 wt. %.
The following cyclodextrins were used: • b-cyclodextrin (BCD): CYL-2518/2 (Wacker Chemie GmbH) • (2-hydroxy)propyl-b-cyclodextrin (HPBCD): E0062 (Roquette Frères) • sulfobutylether-b-cyclodextrin (SBEBCD): 47K040508 (CycloLab)

[2] = Description: Literatural examples indicate that the effectiveness of complex formation may be increased upon the addition of hydroxycarboxylic acids, especially citric acid in case the complex forming cyclodextrin or its complex is subject to aggregation. Often this is the case when parent cyclodextrins are applied. […] As a proof of concept, representative isotherm data were determined in the presence of citric acid (added in equimolar ratio with the pharmacon) and compared to the original dissolved concentrations (Table 2).

Dissolved Dapagliflozin ([1]; BCD 0.5 wt. %): 3.3 mg/mL | Dissolved Dapagliflozin ([1]; BCD 1.0 wt. %): 4.7 mg/mL | Dissolved Dapagliflozin ([1]; BCD 1.5 wt. %): 6.3 mg/mL | Dissolved Dapagliflozin ([1]; BCD 2.0 wt. %): 7.7 mg/mL | Dissolved Dapagliflozin ([1]; HPBCD 1.0 wt. %): 4.4 mg/mL | Dissolved Dapagliflozin ([1]; HPBCD 2.0 wt. %): 7.2 mg/mL | Dissolved Dapagliflozin ([1]; HPBCD 2.5 wt. %): 8.6 mg/mL | Dissolved Dapagliflozin ([1]; HPBCD 3.0 wt. %): 9.7 mg/mL | Dissolved Dapagliflozin ([1]; HPBCD 4.0 wt. %): 12.5 mg/mL | Dissolved Dapagliflozin ([1]; HPBCD 5.0 wt. %): 14.4 mg/mL | Dissolved Dapagliflozin ([1]; HPBCD 10.0 wt. %): 14.1 mg/mL | Dissolved Dapagliflozin ([1]; HPBCD 15.0 wt. %): 14.0 mg/mL | Dissolved Dapagliflozin ([1]; HPGCD 1.0 wt. %): 4.2 mg/mL | Dissolved Dapagliflozin ([1]; HPGCD 5.0 wt. %): 11.3 mg/mL | Dissolved Dapagliflozin ([1]; HPGCD 10.0 wt. %): 14.9 mg/mL | Dissolved Dapagliflozin ([1]; HPGCD 15.0 wt. %): 14.4 mg/mL | Dissolved Dapagliflozin ([1]; SBEBCD 1.0 wt. %): 3.8 mg/mL | Dissolved Dapagliflozin ([1]; SBEBCD 5.0 wt. %): 10.7 mg/mL | Dissolved Dapagliflozin ([1]; SBEBCD 10.0 wt. %): 13.1 mg/mL | Dissolved Dapagliflozin ([1]; SBEBCD 15.0 wt. %): 12.8 mg/mL | Dissolved Dapagliflozin ([1]; no cyclodextrin): 1.6 mg/mL | effect of the interactions with cyclodextrins on solubility ([1]; cyclodextrin-concentration dependent): significant solubility enhancement | Dissolved Dapagliflozin ([2]; HPBCD 1.0% + 28 mg citric acid (equimolar with the drug)): 4.1 mg/mL | Dissolved Dapagliflozin ([2]; HPBCD 2.5% + 28 mg citric acid (equimolar with the drug)): 8.1 mg/mL | Dissolved Dapagliflozin ([2]; HPBCD 5.0% + 28 mg citric acid (equimolar with the drug)): 14.3 mg/mL
Compound: CCOc1ccc(Cc2cc([C@@H]3O[C@H](CO)[C@@H](O)[C@H](O)[C@H]3O)ccc2Cl)cc1 [dapagliflozin, (2S,3R,4R,5S,6R)-2-[4-chloro-3-(4-ethoxybenzyl)phenyl]-6-(hydroxymethyl)-tetrahydro-2H-pyran-3,4,5-triol]
